This note sets out measurements from ChEMBL document CHEMBL4619743, “Synthetic approaches towards bedaquiline and its derivatives” (2020).

For experiment [1], the system named is Mycobacterium tuberculosis. In words: Antimycobacterial activity against Mycobacterium tuberculosis H37Rv. The format is functional.
The test system of experiment [2] is Mycobacterium tuberculosis. In words: Antimycobacterial activity against Mycobacterium tuberculosis. The format is functional.

In brackets after ≈: the same amount, converted by molar mass.

One may read the MIC90 as the lowest concentration that inhibits either 90% of growth or 90% of the strains tested, depending on the study. Low readings indicate higher susceptibility, high ones lower susceptibility. Compound `COc1cc2ccc(Br)cc2cc1[C@@H](c1ccccc1)[C@@](O)(CCN(C)C)c1cccc2ccccc12` came in with an MIC90 in experiment [1] of 0.59 mg/L (≈ 1.06 µM).

Take `COc1cc2ccc(Br)cc2cc1[C@@H]1O[C@H]1CO`: the MIC90 is 0.13 to 0.5 mg/L (≈ 0.42 to 1.62 µM) in experiment [2] and 0.11 mg/L (≈ 0.356 µM) in experiment [1].

For `COc1cc2ccc(Br)cc2cc1[C@@H](c1ccccc1)[C@@](O)(CCN(C)C)c1cccc(Br)c1`, the MIC90 in experiment [1] was 0.01 mg/L (≈ 0.0171 µM).
